Data on 17 molecules can be found in patent US20260356846A1, “STATIN DERIVATIVES AND METHODS OF USING THE SAME” (The General Hospital Corporation, priority 2023, published 2026).

Where two headings read alike, the source gives them in different places.

Data set [1] concerns STMN2 (TDP-mut (N352S) STMN2-NLuc SH-SY5Y cells). Briefly: STMN2 nanoluciferase assay in TDP-43 mutant SH-SY5Y cells (Table A: mut TDP-43; Table B: mut HD Luciferase). The class given is cell-based, human. The note with it: mutant TDP-43 cell line. As to the method:
(§1) Neuroblastoma cells (ATCC) were cultured in DMEM/F12 (Gibco) supplemented with 10% fetal-bovine serum (Omega) and 1% penicillin-streptomycin (Gibco) at 37 °C with 5% CO2. For knockdown experiments, cells were transfected with SMARTpool ON-TARGETplus siRNA or control siRNA pool (D001810-10) (GE Dharmacon) at a final concentration of 50 nM, for 96 h in two doses (0, 24 h), after complexing with Lipofectamin RNAiMAX (Invitrogen) in Opti-MEM (Gibco) for 10 min.
(§2) WT and TDP-mut (N352S) SH-SY5Y cells were edited using CRISPR-Cas9 to express Nanoluciferase at the C-terminus of both endogenous STMN2 alleles. A single guided RNA targeting STMN2 C-terminus was designed (Benchling webtool) and cloned into pSpCas9-2A-green fluorescent protein (GFP) plasmid (px458-Addgene) using the BbsI restriction site. The sequence for guided RNA targeting STMN2 was: […]. For the repair template, overlapping fragments of 800 bp STMN2 homology arms flanking Nanoluciferase (NLuc, Promega) were generated and ligated into pUC57 backbone. A 42 bp GS-linker was also included 5′ to NLuc to prevent steric hindrance of the reporter to the final STMN2 exon. Fragments were ligated using Gibson Assembly and nucleofected simultaneously with pSpCas9-2A-GFP-gRNA plasmid using the Amaxa Nucleofector (assay A-023). Forty-eight hours following electroporation, cells were collected, and GFP-positive cells sorted and single-cell seeded into 96-well plates using the SH800S Sony cell sorter. Individual clones were expanded and DNA was extracted for PCR amplification of the STMN2 Ex5 genomic locus using primers within NLuc and outside the STMN2 5′ homology arm to confirm presence of the insert. The entire STMN2 coding region and all exon-intron junctions (>500-bp length of each intronic region) were then sequenced to verify the absence of any additional DNA alteration. qPCR analysis was performed with a wild-type isogenic SH-SY5Y cell line that had undergone the mutagenesis attempt but not acquired the insertion mutation during the original screening process.
(§3) TDP-mut STMN2-NLuc SH-SY5Y cells were used in small-molecule screening at ICCB-Longwood. 3000 cells/well were plated in white 384-well plates using a 50 ul sample volume. 24 hours after plating, compounds were added using 100 nl pin transfer. 24 hours later, 25 ul NLuc assay was added to each well according to manufacturer instructions (Promega, Cat #). Plates were shaken for 1 min prior to luminescence readings using EnVision2 machine. DMSO-only and WT STMN2-NLuc cells were included as negative and positive controls respectively on each plate, producing an average Z′score of ~0.7 across the screen. Each library plate was conducted in duplicate, and Z-scores calculated for each compound. For subsequent validation experiments, cell numbers in each well were quantified by hoescht staining at 1 μg/ml for 15 mins at 37C in black, clear bottom plates, prior to imaging at 4× using automated microscopy (ImageXpressMicro). Nuclei were then counted using a custom algorithm, and luciferase assay run as above. Luminescence results were then normalised against cell counts as RLU/cell.
(§4) Each compound was tested in triplicate in log doses ranging 0.01 μM−10 μM. The values are represented in luminescence normalized to the number of cells in the well, wherein darker grey correlates to higher RLU per cell and higher STMN2 protein expression.

For data set [2], the system named is STMN2 (WT STMN2-NLuc SH-SY5Y cells). Description: STMN2 nanoluciferase assay in WT SH-SY5Y cells (Table A: WT TDP-32; Table B: WT HD Luciferase). The note with it: WT cell line. The class given is cell-based, human. As to the method: as §1, §2, §3, §4
Setting [3] is: Homo sapiens, SH-SY5Y, Table B, read-out: EC50, mut HD Luciferase.
The mark [4] stands for this setting: Homo sapiens, SH-SY5Y, Table B, Emax.
[5] abbreviates: Homo sapiens, SH-SY5Y, Table B, read-out: EC50, WT HD Luciferase.
[6] abbreviates: Homo sapiens, SH-SY5Y, Table A, read-out: EC50, mut TDP-43.
[7] abbreviates: Homo sapiens, SH-SY5Y, Table A, read-out: EC50, WT TDP-32.

The EC50 is the midpoint of the concentration-response curve. As a reminder, the maximal fold induction is the signal under treatment as a multiple of the control signal.

As to `Cc1cc2nc(C3CC3)c(/C=C/[C@@H](O)C[C@@H](O)CC(=O)O)c(-c3ccc(F)cc3)c2s1` [Example I-6, (3R,5S,E)-7-(5-cyclopropyl-7-(4-fluorophenyl)-2-methylthieno[3,2-b]pyridin-6-yl)-3,5-dihydroxyhept-6-enoic acid], the EC50 in data set [1] (setting [3]) and in data set [2] (setting [5]) was 10 to 50 nM each time. This molecule also came in with a maximal fold induction in data set [2] (setting [4]) of 1.25 to 1.5.

On to `Cc1csc2c(-c3ccc(F)cc3Cl)c(/C=C/[C@@H](O)C[C@@H](O)CC(=O)O)c(C3CC3)nc12` [Example I-15, (3R,5S,E)-7-(7-(2-chloro-4-fluorophenyl)-5-cyclopropyl-3-methylthieno[3,2-b]pyridin-6-yl)-3,5-dihydroxyhept-6-enoic acid], for which the EC50 in data set [1] (setting [3]) and in data set [2] (setting [5]) was 10 to 50 nM in each case.

On to `O=C(O)C[C@H](O)C[C@H](O)/C=C/c1c(C2CC2)nc2ccsc2c1-c1ccc(F)cc1` [Example I-4, (3R,5S,E)-7-(5-cyclopropyl-7-(4-fluorophenyl)thieno[3,2-b]pyridin-6-yl)-3,5-dihydroxyhept-6-enoic acid], for which the EC50 in data set [1] (setting [6]) fell in the range of 100 to 500 nM; in data set [1] (setting [3]), 10 to 50 nM; in data set [2] (setting [7]), 100 to 500 nM; in data set [2] (setting [5]) it was 10 to 50 nM.

In the case of `O=C(O)C[C@H](O)C[C@H](O)/C=C/c1c(C2CC2)cc2scnc2c1-c1ccc(F)cc1` [Example I-9, (3R,5S,E)-7-(6-cyclopropyl-4-(4-fluorophenyl)benzo[d]thiazol-5-yl)-3,5-dihydroxyhept-6-enoic acid], the EC50 in data set [1] (setting [6]) was 5000 to 10000 nM; in data set [1] (setting [3]) it was no less than 500 nM; in data set [2] (setting [7]) it was no less than 10000 nM; in data set [2] (setting [5]), no less than 500 nM. Besides, the “HD Luciferase (mut, Emax)” value in data set [1] (Table B) was “* (means≥1 and <1.25)”. Moreover, in data set [2] (setting [4]), the maximal fold induction was 1 to 1.25.

Take `COCc1c(C23CC(C2)C3)nc(C2CC2)c(/C=C/[C@@H](O)C[C@@H](O)CC(=O)O)c1-c1ccc(F)cc1Cl` [II-1, (3R,5S,E)-7-(6-(bicyclo[1.1.1]pentan-1-yl)-4-(2-chloro-4-fluorophenyl)-2-cyclopropyl-5-(methoxymethyl)pyridin-3-yl)-3,5-dihydroxyhept-6-enoic acid]: the EC50 in data set [1] (setting [6]) fell in the range of 100 to 500 nM; in data set [1] (setting [3]) it was 10 to 50 nM; in data set [2] (setting [7]), 100 to 500 nM; in data set [2] (setting [5]) it was 10 to 50 nM. Besides, in data set [1] (Table B), the “HD Luciferase (mut, Emax)” value was “**** (means≥1.5 and <1.75)”.

Turning to `O=C(O)C[C@H](O)C[C@H](O)/C=C/c1c(-c2ccc(F)cc2)cc(C23CC(C2)C3)nc1C1CC1` [II-16, (3R,5S,E)-7-(6-(bicyclo[1.1.1]pentan-1-yl)-2-cyclopropyl-4-(4-fluorophenyl)pyridin-3-yl)-3,5-dihydroxyhept-6-enoic acid], the values for the EC50 in data set [1] (setting [3]) and in data set [2] (setting [5]) were 100 to 500 nM and 50 to 100 nM, respectively. For the same molecule, the “HD Luciferase (mut, Emax)” value in data set [1] (Table B) was “** (means≥1.25 and <1.5)”.

For the molecule `O=C(O)C[C@H](O)C[C@H](O)/C=C/c1c(-c2ccc(F)cc2Cl)cc(C2CCC2)nc1C1CC1` [II-7, (3R,5S,E)-7-(4-(2-chloro-4-fluorophenyl)-6-cyclobutyl-2-cyclopropylpyridin-3-yl)-3,5-dihydroxyhept-6-enoic acid], the EC50 in data set [1] (setting [3]) lay within 50 to 100 nM; in data set [2] (setting [5]), 10 to 50 nM.

For the molecule `COCc1c(C2CC2)nc(C2CC2)c(/C=C/[C@@H](O)C[C@@H](O)CC(=O)O)c1-c1cc(F)ccc1C` [II-24, (3R,5S,E)-7-(2,6-dicyclopropyl-4-(5-fluoro-2-methylphenyl)-5-(methoxymethyl)pyridin-3-yl)-3,5-dihydroxyhept-6-enoic acid], the EC50 in data set [1] (setting [3]) and in data set [2] (setting [5]) was 10 to 50 nM each time. In addition, the “HD Luciferase (mut, Emax)” value in data set [1] (Table B) was “** (means≥1.25 and <1.5)”. The molecule also showed a maximal fold induction in data set [2] (setting [4]) of 1.25 to 1.5.

For the molecule `Cc1cc2c(-c3ccc(F)cc3)c(/C=C/[C@@H](O)C[C@@H](O)CC(=O)O)c(C3CC3)nc2s1` [Example I-5c, (3R,5S,E)-7-(6-cyclopropyl-4-(4-fluorophenyl)-2-methylthieno[2,3-b]pyridin-5-yl)-3,5-dihydroxyhept-6-enoic acid], the EC50 in data set [1] (Table B, read-out: EC50, mut HD Luciferase) was in the range of 100 to 500 nM; in data set [2] (Table B, read-out: EC50, WT HD Luciferase), 100 to 500 nM. For the same molecule, the “HD Luciferase (WT, Emax)” value in data set [2] (Table B, Emax) is “** (means≥1.25 and <1.5)”.

As for `COCc1c(C2CC2)nc(C2CC2)c(/C=C/[C@@H](O)C[C@@H](O)CC(=O)O)c1-c1cc(Cl)ccc1F` [II-20, (3R,5S,E)-7-(4-(5-chloro-2-fluorophenyl)-2,6-dicyclopropyl-5-(methoxymethyl)pyridin-3-yl)-3,5-dihydroxyhept-6-enoic acid], the EC50 in data set [1] (setting [3]) and in data set [2] (setting [5]) was 10 to 50 nM in each case. For the same molecule, in data set [2] (setting [4]), the maximal fold induction is 1.25 to 1.5.

Consider `O=C(O)C[C@H](O)C[C@H](O)/C=C/c1c(-c2ccc(F)cc2Cl)cc(C2CC2)nc1C1CC1` [II-8, (3R,5S,E)-7-(4-(2-chloro-4-fluorophenyl)-2,6-dicyclopropylpyridin-3-yl)-3,5-dihydroxyhept-6-enoic acid], for which the EC50 in data set [1] (setting [6]) fell in the range of 100 to 500 nM; in data set [1] (setting [3]), 10 to 50 nM; in data set [2] (setting [7]), 100 to 500 nM; in data set [2] (setting [5]), 10 to 50 nM.

As to `COCc1c(C23CC(C2)C3)nc(C2CC2)c(/C=C/[C@@H](O)C[C@@H](O)CC(=O)O)c1-c1ccc(F)cc1` [II-2, (3R,5S,E)-7-(6-(bicyclo[1.1.1]pentan-1-yl)-2-cyclopropyl-4-(4-fluorophenyl)-5-(methoxymethyl)pyridin-3-yl)-3,5-dihydroxyhept-6-enoic acid], the EC50 in data set [1] (setting [6]) is no more than 100 nM; in data set [1] (setting [3]) it was no more than 10 nM; in data set [2] (setting [7]), 100 to 500 nM; in data set [2] (setting [5]), no more than 10 nM.

On to `COCc1c(C2CC2)nc(C2CC2)c(/C=C/[C@@H](O)C[C@@H](O)CC(=O)O)c1-c1ccc(F)cc1Cl` [II-9, (3R,5S,E)-7-(4-(2-chloro-4-fluorophenyl)-2,6-dicyclopropyl-5-(methoxymethyl)pyridin-3-yl)-3,5-dihydroxyhept-6-enoic acid], for which the EC50 in data set [1] (setting [6]) was no more than 100 nM; in data set [1] (setting [3]) it was no more than 10 nM; in data set [2] (setting [7]) it was no more than 100 nM; in data set [2] (setting [5]), no more than 10 nM. In data set [2] (setting [4]), this molecule showed a maximal fold induction of 1.5 to 1.75.

In the case of `O=C(O)C[C@H](O)C[C@H](O)/C=C/c1c(C2CC2)nc(C2CC2)c(COC2CC2)c1-c1ccc(Cl)cc1F` [II-23, (3R,5S,E)-7-(4-(4-chloro-2-fluorophenyl)-5-(cyclopropoxymethyl)-2,6-dicyclopropylpyridin-3-yl)-3,5-dihydroxyhept-6-enoic acid], the EC50 in data set [1] (setting [3]) and in data set [2] (setting [5]) was 10 to 50 nM throughout.

For the molecule `COCc1c(C2CC2)nc(C2CC2)c(/C=C/[C@@H](O)C[C@@H](O)CC(=O)O)c1-c1ccc(Cl)cc1F` [II-19, (3R,5S,E)-7-(4-(4-chloro-2-fluorophenyl)-2,6-dicyclopropyl-5-(methoxymethyl)pyridin-3-yl)-3,5-dihydroxyhept-6-enoic acid], the EC50 in data set [1] (setting [3]) and in data set [2] (setting [5]) was 10 to 50 nM throughout.

Turning to `COCc1c(C2CC2)nc(C)c(/C=C/[C@@H](O)C[C@@H](O)CC(=O)O)c1-c1ccc(F)cc1C` [II-26, (3R,5S,E)-7-(6-cyclopropyl-4-(4-fluoro-2-methylphenyl)-5-(methoxymethyl)-2-methylpyridin-3-yl)-3,5-dihydroxyhept-6-enoic acid], the EC50 in data set [1] (setting [3]) and in data set [2] (setting [5]) was no less than 500 nM in each case. Also, the “HD Luciferase (mut, Emax)” value in data set [1] (Table B) was “* (means≥1 and <1.25)”. The molecule further displayed a maximal fold induction in data set [2] (setting [4]) of 1 to 1.25.

As for `CC[C@H](C)C(=O)O[C@H]1C[C@H](O)C=C2C=C[C@H](C)[C@H](CC[C@@H](O)C[C@@H](O)CC(=O)O)[C@H]21` [Pravastatin], the EC50 in data set [1] (setting [6]) and in data set [2] (setting [7]) was no less than 10000 nM throughout.
